Data: publication PMC6010021, “Mono- and di-thiocarbamate inhibition studies of the δ-carbonic anhydrase TweCAδ from the marine diatom Thalassiosira weissflogii” (Journal of Enzyme Inhibition and Medicinal Chemistry, 2018)
One block for each molecule: values may come before it.

Biological target: T1, TweCAδ (Conticribra weissflogii, UniProt Q5U9J1)
T1 construct: gene ca1; recombinant protein produced as reported earlier by the group
T1 sequence (Q5U9J1 1-281): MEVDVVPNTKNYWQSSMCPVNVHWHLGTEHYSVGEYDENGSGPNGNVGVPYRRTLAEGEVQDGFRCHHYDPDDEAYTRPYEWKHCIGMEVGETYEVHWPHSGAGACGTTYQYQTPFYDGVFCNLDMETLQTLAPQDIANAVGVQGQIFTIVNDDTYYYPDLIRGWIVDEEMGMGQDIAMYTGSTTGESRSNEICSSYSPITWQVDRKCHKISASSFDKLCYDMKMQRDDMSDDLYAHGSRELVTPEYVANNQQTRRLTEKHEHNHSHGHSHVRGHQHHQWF
Test: stopped-flow CO2 hydrase assay
Assay type: biochemical
Conditions: read-out: RR^1NCS2M (16-36) / KI (nM)^a / TweCAδ

Compound: CCCN(CCC)C(=O)S [compound 1, MTC 1]
Ki: 807 nM

Compound: CCCCN(CC)C(=O)S [compound 2, MTC 2]
Ki: 783 nM

Compound: CC(C)CN(CC(C)C)C(=O)S [compound 4, MTC 4]
Ki: > 20000 nM

Compound: CCOC(=O)CN(C)C(=O)S [compound 5, MTC 5]
Ki: > 20000 nM

Compound: O=C(S)N1CCOCC1 [compound 6, MTC 6]
Ki: > 20000 nM

Compound: CN(Cc1ccccc1)C(=O)S [compound 10, MTC 10]
Ki: > 20000 nM

Compound: OCCCNC(=S)S [compound 17, DTC 17]
Ki: 8690 nM

Compound: S=C(S)NC1CN2CCC1CC2 (stereo not shown) [compound 20, DTC 20]
Ki: > 20000 nM

Compound: S=C(S)N[C@H]1CN2CCC1CC2 [compound 21, DTC 21]
Ki: > 20000 nM

Compound: S=C(S)N1CCCCC1 [compound 23, DTC 23]
Ki: > 20000 nM

Compound: OC1CCCN(C(=S)S)C1 (stereo not shown) [compound 24, DTC 24]
Ki: > 20000 nM

Compound: O=C(O)C1CCCCN1C(=S)S (stereo not shown) [compound 25, DTC 25]
Ki: > 20000 nM

Compound: O=C(O)C1CCN(C(=S)S)CC1 [compound 29, DTC 29]
Ki: 8980 nM

Compound: CC1COCCN1C(=S)S (stereo not shown) [compound 32, DTC 32]
Ki: > 20000 nM

Compound: O=C(O)C1COCCN1C(=S)S (stereo not shown) [compound 33, DTC 33]
Ki: > 20000 nM

The next lines start with the values.

Ki: 1140 nM
Compound: CCCCN(CCCC)C(=O)S [compound 3, MTC 3]

Ki: 487 nM
Compound: CN1CCN(NC(=O)S)CC1 [compound 7, MTC 7]

Ki: 129 nM
Compound: O=C(CN1CCN(C(=O)S)CC1)NC1CCCCC1 [compound 9, MTC 9]

Ki: 997 nM
Compound: O=C(S)NCCc1ccccc1 [compound 11, MTC 11]

Ki: 67.7 nM
Compound: COc1ccc(CCNC(=O)S)cc1OC [compound 12, MTC 12]

Ki: 1510 nM
Compound: O=C(S)N1CCN(c2cccc(Cl)c2)CC1 [compound 13, MTC 13]

Ki: 1500 nM
Compound: O=C(S)N1CCN(c2ccc(F)cc2)CC1 [compound 14, MTC 14]

Ki: 1150 nM
Compound: O=C(S)N1CCN(c2ccc(C(F)(F)F)cc2)CC1 [compound 15, MTC 15]

Ki: 8410 nM
Compound: CN(C)CCNC(=S)S [compound 16, DTC 16]

Ki: 7170 nM
Compound: OCCCCNC(=S)S [compound 18, DTC 18]

Ki: 8600 nM
Compound: OCCCCCNC(=S)S [compound 19, DTC 19]

Ki: 7990 nM
Compound: S=C(S)N[C@@H]1CN2CCC1CC2 [compound 22, DTC 22]

Ki: 8430 nM
Compound: O=C(O)C1CCCN(C(=S)S)C1 (stereo not shown) [compound 26, DTC 26]

Ki: 93.6 nM
Compound: O=C(O)[C@@H]1CCCN(C(=S)S)C1 [compound 27, DTC 27]

Ki: 556 nM
Compound: O=C(O)[C@H]1CCCN(C(=S)S)C1 [compound 28, DTC 28]

Ki: 783 nM
Compound: CC(=O)NC1CCCN(C(=S)S)C1 (stereo not shown) [compound 30, DTC 30]

Ki: 791 nM
Compound: O=C(CN1CCN(C(=S)S)CC1)NC1CCCCC1 [compound 34, DTC 34]

Ki: 897 nM
Compound: S=C(S)NCCc1ccccc1 [compound 35, DTC 35]

Ki: 704 nM
Compound: NS(=O)(=O)c1ccc(CCNC(=S)S)cc1 [compound 36, DTC 36]
